This note sets out measurements from patent US20240189221A1, “METHODS AND FORMULATIONS FOR TREATING VASCULAR DISEASE” (ENDOPERFUSION SOLUTIONS, LLC, priority 2015, published 2024).

This assay deals with Human artery smooth muscle cells. Briefly: Smooth muscle cell proliferation (cell count by flow cytometry). Type of assay: cell-based. The note with it: 0.01-1 μM, 48 h; FIG. 6, FIG. 7A. How it is done: Human artery smooth muscle cells were seeded at 20,000 cells per well on 24-well plates (3 wells per condition) in growth medium and allowed to adhere overnight at 37° C. […] Cells were washed with PBS, trypsinized, and counted using a flow cytometer (Beckman-Coulter FC500).
For orientation: A flow cytometer gives signals particle by particle.

For the compound `COCc1c(C(C)C)nc(C(C)C)c(/C=C/[C@@H](O)C[C@@H](O)CC(=O)O)c1-c1ccc(F)cc1` [free cerivastatin, (3R,5S,6E)-7-[4-(4-fluorophenyl)-5-(methoxymethyl)-2,6-bis(propan-2-yl)pyridin-3-yl]-3,5-dihydroxyhept-6-enoic acid], the “proliferation of SMCs” value was “inhibits the proliferation of SMCs”.
